# According to ChEMBL document CHEMBL1201862, “PubChem BioAssay data set” (2004):
#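 All cell lines were grown in 96-well plates and treated with compound for 48 hours. GI50 is the concentration that inhibits growth by half.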 The source made the active and inactive calls. Rule as the data show it: active = GI50 up to about 1.1 µM and inactive = higher.
# Legend:
# Assay in all cases: NCI tumour cell line growth inhibition, 48 h
# MOLT-4 = system: MOLT-4
# OVCAR-5 = system: OVCAR-5
# A549 = system: A549
# MDA-N = system: MDA-N
# KM12 = system: KM12
# OVCAR-8 = system: OVCAR-8
# NCI-H460 = system: NCI-H460
# SNB-19 = system: SNB-19
# NCI-H226 = system: NCI-H226
# A498 = system: A498
# UACC-257 = system: UACC-257
# HOP-92 = system: HOP-92
# COLO 205 = system: COLO 205
# ACHN = system: ACHN
# HCC 2998 = system: HCC 2998
# SN12C = system: SN12C
# Malme-3M = system: Malme-3M
# PC-3 = system: PC-3
# SK-MEL-5 = system: SK-MEL-5
# NCI-H23 = system: NCI-H23
# HT-29 = system: HT-29
# IGROV-1 = system: IGROV-1
# CAKI-1 = system: CAKI-1
# CCRF-CEM = system: CCRF-CEM
# DU-145 = system: DU-145
# 786-0 = system: 786-0
# SF-295 = system: SF-295
# NCI/ADR-RES = system: NCI/ADR-RES
# RPMI-8226 = system: RPMI-8226
# U-251 = system: U-251
# OVCAR-4 = system: OVCAR-4
# K562 = system: K562
# SNB-75 = system: SNB-75
# SK-MEL-28 = system: SK-MEL-28
# MDA-MB-231 = system: MDA-MB-231
# Hs-578T = system: Hs-578T
# SR = system: SR
# HCT-116 = system: HCT-116
# NCI-H522 = system: NCI-H522
# HCT-15 = system: HCT-15
# UO-31 = system: UO-31
# LOX IMVI = system: LOX IMVI
# SK-OV-3 = system: SK-OV-3
# HL-60 = system: HL-60
# HOP-62 = system: HOP-62
# SF-268 = system: SF-268
# RXF 393 = system: RXF 393
# SF-539 = system: SF-539
# SW-620 = system: SW-620
# TK-10 = system: TK-10
# SK-MEL-2 = system: SK-MEL-2
# EKVX = system: EKVX
# T47D = system: T47D
# UACC-62 = system: UACC-62
# MDA-MB-435 = system: MDA-MB-435
# M14 = system: M14
# OVCAR-3 = system: OVCAR-3
# MCF7 = system: MCF7
compound,measurement,setting,value
O=C(c1ccccc1)N1C(=O)N(c2ccccc2)C(=N/c2ccccc2)/C1=N\c1ccccc1,GI50,MOLT-4,19.5 µM (inactive)
same,GI50,OVCAR-5,99.1 µM (inactive)
same,GI50,A549,42.2 µM (inactive)
same,GI50,MDA-N,> 100 µM (inactive)
same,GI50,KM12,13.5 µM (inactive)
same,GI50,OVCAR-8,> 100 µM (inactive)
same,GI50,NCI-H460,15 µM (inactive)
same,GI50,SNB-19,> 100 µM (inactive)
same,GI50,NCI-H226,18 µM (inactive)
same,GI50,A498,> 100 µM (inactive)
same,GI50,UACC-257,37.8 µM (inactive)
same,GI50,HOP-92,64.1 µM (inactive)
same,GI50,COLO 205,70.5 µM (inactive)
same,GI50,ACHN,80.7 µM (inactive)
same,GI50,HCC 2998,28.8 µM (inactive)
same,GI50,SN12C,> 100 µM (inactive)
same,GI50,Malme-3M,69 µM (inactive)
same,GI50,PC-3,> 100 µM (inactive)
same,GI50,SK-MEL-5,> 100 µM (inactive)
same,GI50,NCI-H23,> 100 µM (inactive)
same,GI50,HT-29,33.7 µM (inactive)
same,GI50,IGROV-1,> 100 µM (inactive)
same,GI50,CAKI-1,48.1 µM (inactive)
same,GI50,CCRF-CEM,50.7 µM (inactive)
same,GI50,DU-145,> 100 µM (inactive)
same,GI50,786-0,> 100 µM (inactive)
same,GI50,SF-295,> 100 µM (inactive)
same,GI50,NCI/ADR-RES,> 100 µM (inactive)
same,GI50,RPMI-8226,> 100 µM (inactive)
same,GI50,U-251,> 100 µM (inactive)
same,GI50,OVCAR-4,23.4 µM (inactive)
same,GI50,K562,7.36 µM (inactive)
same,GI50,SNB-75,> 100 µM (inactive)
same,GI50,SK-MEL-28,> 100 µM (inactive)
same,GI50,MDA-MB-231,> 100 µM (inactive)
same,GI50,Hs-578T,20.3 µM (inactive)
same,GI50,SR,17.8 µM (inactive)
same,GI50,HCT-116,47.9 µM (inactive)
same,GI50,NCI-H522,11 µM (inactive)
same,GI50,HCT-15,64 µM
same,GI50,UO-31,> 100 µM (inactive)
same,GI50,LOX IMVI,9.25 µM (inactive)
same,GI50,SK-OV-3,> 100 µM (inactive)
same,GI50,HL-60,> 100 µM (inactive)
same,GI50,HOP-62,52.4 µM (inactive)
same,GI50,SF-268,> 100 µM (inactive)
same,GI50,RXF 393,99.3 µM (inactive)
same,GI50,SF-539,> 100 µM (inactive)
same,GI50,SW-620,> 100 µM (inactive)
same,GI50,TK-10,> 100 µM (inactive)
same,GI50,SK-MEL-2,29.9 µM (inactive)
same,GI50,EKVX,> 100 µM (inactive)
same,GI50,T47D,> 100 µM (inactive)
same,GI50,UACC-62,4.18 µM (inactive)
same,GI50,MDA-MB-435,> 100 µM (inactive)
CN(CCCCCl)P(=O)(OCc1ccc([N+](=O)[O-])o1)OCC1OC(n2ccc(N)nc2=O)C(O)C1O (stereo not drawn),GI50,MOLT-4,0.305 µM (active)
same,GI50,OVCAR-5,14.8 µM (inactive)
same,GI50,A549,0.303 µM (active)
same,GI50,MDA-N,1.82 µM (inactive)
same,GI50,KM12,3.24 µM (inactive)
same,GI50,OVCAR-8,2.82 µM (inactive)
same,GI50,NCI-H460,2.29 µM (inactive)
same,GI50,SNB-19,3.21 µM (inactive)
same,GI50,NCI-H226,11.4 µM (inactive)
same,GI50,M14,7.48 µM (inactive)
same,GI50,UACC-257,2.21 µM (inactive)
same,GI50,COLO 205,1.05 µM (active)
same,GI50,ACHN,11.7 µM (inactive)
same,GI50,HCC 2998,3.37 µM (inactive)
same,GI50,SN12C,3.52 µM (inactive)
same,GI50,Malme-3M,1.16 µM (inactive)
same,GI50,PC-3,2.39 µM (inactive)
same,GI50,SK-MEL-5,0.097 µM (active)
same,GI50,NCI-H23,5.79 µM (inactive)
same,GI50,HT-29,4.61 µM (inactive)
same,GI50,IGROV-1,3.08 µM (inactive)
same,GI50,CAKI-1,55 µM (inactive)
same,GI50,DU-145,6.93 µM (inactive)
same,GI50,786-0,13.4 µM (inactive)
same,GI50,SF-295,13.9 µM (inactive)
same,GI50,NCI/ADR-RES,4.47 µM (inactive)
same,GI50,RPMI-8226,1.57 µM (inactive)
same,GI50,U-251,2.14 µM (inactive)
same,GI50,OVCAR-4,1.05 µM (active)
same,GI50,K562,2.99 µM (inactive)
same,GI50,SNB-75,0.571 µM (active)
same,GI50,SK-MEL-28,2.33 µM (inactive)
same,GI50,MDA-MB-231,18.9 µM (inactive)
same,GI50,Hs-578T,1.26 µM (inactive)
same,GI50,SR,5.87 µM (inactive)
same,GI50,HCT-116,3.68 µM (inactive)
same,GI50,NCI-H522,3.15 µM (inactive)
same,GI50,HCT-15,41.4 µM
same,GI50,UO-31,14.2 µM (inactive)
same,GI50,LOX IMVI,7.24 µM (inactive)
same,GI50,SK-OV-3,4.17 µM (inactive)
same,GI50,HL-60,4.15 µM (inactive)
same,GI50,HOP-62,10.6 µM (inactive)
same,GI50,SF-268,7.6 µM (inactive)
same,GI50,RXF 393,6.21 µM (inactive)
same,GI50,SF-539,10.1 µM (inactive)
same,GI50,OVCAR-3,2.1 µM (inactive)
same,GI50,SW-620,2.45 µM (inactive)
same,GI50,TK-10,37.7 µM (inactive)
same,GI50,SK-MEL-2,9.79 µM (inactive)
same,GI50,T47D,1.26 µM (inactive)
same,GI50,MCF7,1.82 µM (inactive)
same,GI50,UACC-62,12.9 µM (inactive)
same,GI50,MDA-MB-435,1.98 µM (inactive)
CCOC(=O)[C@@]12C3C=CC(CC3)[C@]1(C(=O)c1ccccc1)C(=O)C(=O)N2c1ccccc1 (stereo partly drawn),GI50,MOLT-4,> 100 µM (inactive)
same,GI50,OVCAR-5,> 100 µM (inactive)
same,GI50,A549,> 100 µM (inactive)
same,GI50,MDA-N,> 100 µM (inactive)
same,GI50,KM12,> 100 µM (inactive)
same,GI50,OVCAR-8,> 100 µM (inactive)
same,GI50,NCI-H460,> 100 µM (inactive)
same,GI50,SNB-19,> 100 µM (inactive)
same,GI50,M14,> 100 µM (inactive)
same,GI50,A498,> 100 µM (inactive)
same,GI50,HOP-92,> 100 µM (inactive)
same,GI50,COLO 205,> 100 µM (inactive)
same,GI50,ACHN,> 100 µM (inactive)
same,GI50,HCC 2998,> 100 µM (inactive)
same,GI50,SN12C,> 100 µM (inactive)
same,GI50,Malme-3M,> 100 µM (inactive)
same,GI50,PC-3,> 100 µM (inactive)
same,GI50,SK-MEL-5,> 100 µM (inactive)
same,GI50,NCI-H23,> 100 µM (inactive)
same,GI50,HT-29,> 100 µM (inactive)
same,GI50,CAKI-1,> 100 µM (inactive)
same,GI50,DU-145,> 100 µM (inactive)
same,GI50,786-0,> 100 µM (inactive)
same,GI50,SF-295,> 100 µM (inactive)
same,GI50,NCI/ADR-RES,> 100 µM (inactive)
same,GI50,RPMI-8226,> 100 µM (inactive)
same,GI50,U-251,> 100 µM (inactive)
same,GI50,OVCAR-4,> 100 µM (inactive)
same,GI50,K562,> 100 µM (inactive)
same,GI50,SK-MEL-28,> 100 µM (inactive)
same,GI50,MDA-MB-231,> 100 µM (inactive)
same,GI50,SR,> 100 µM (inactive)
same,GI50,HCT-116,> 100 µM (inactive)
same,GI50,NCI-H522,> 100 µM (inactive)
same,GI50,HCT-15,> 100 µM
same,GI50,UO-31,> 100 µM (inactive)
same,GI50,SK-OV-3,> 100 µM (inactive)
same,GI50,HOP-62,> 100 µM (inactive)
same,GI50,SF-268,> 100 µM (inactive)
same,GI50,RXF 393,> 100 µM (inactive)
same,GI50,SF-539,> 100 µM (inactive)
same,GI50,OVCAR-3,> 100 µM (inactive)
same,GI50,SW-620,> 100 µM (inactive)
same,GI50,TK-10,> 100 µM (inactive)
same,GI50,SK-MEL-2,> 100 µM (inactive)
same,GI50,T47D,> 100 µM (inactive)
same,GI50,MCF7,> 100 µM (inactive)
same,GI50,UACC-62,97.3 µM (inactive)
same,GI50,MDA-MB-435,> 100 µM (inactive)
